Columns and labels:
S. Aureus = biological target: T1, S. Aureus (Staphylococcus aureus, UniProt P00807); assay: Antibiotic susceptibility testing by β-LEAF fluorescence in microfluidic device with portable fluorimeter; format: cell-based
T1 construct: endogenous in cells
Protocol: In another experiment, fluorometric assay techniques were examined using a microfluidic device (e.g., the microfluidic device 102) and fluorescence images were collected using a portable wide field fluorimeter similar to the system 700 depicted in FIGS. 7A-D. In this experiment, the detection reagent was a 20 μM β-LEAF Bodipy-FL probe solution (2×stock) that was prepared in 40% DMSO in PBS, and an antibiotic solution was a […] penicillin G solution (4×stock) that was prepared by dissolving the antibiotic powder in PBS. Two different types of liquid samples were prepared. A first liquid sample (which included the antibiotic solution) was prepared by combining the 25 μl bacterial suspension, 50 μl of probe 2×stock solution, and 25 μl antibiotic 4×stock solution. […]
Data acquisition involved collecting a fluorescent reading by the camera every 3 seconds. […] Fluorescence was measured in a machine specific standard unit. […]
To analyze image data, a region of interest was selected over an area of bacteria capture corresponding to a chamber of the microfluidic device was the liquid samples were collected. Fluorescence data was extracted in a green channel. […]
The experiment was performed using two liquid samples that were introduced into a microfluidic device and monitored for fluorescence over a 10-minute time period. […]

[1] = biological target: T2, β-lactamase producing strain (B-lac(+)) (Staphylococcus aureus, UniProt P00807); format: cell-based; conditions: B-lac(+) S. aureus, β-LEAF with vs without cefazolin, 60-minute time course, 37° C.
T2 construct: a known β-lactamase producing strain (B-lac(+)); host or cells: S. aureus ATCC control strain, β-lactamase producing (B-lac(+))
T2 sequence (P00807 25-281): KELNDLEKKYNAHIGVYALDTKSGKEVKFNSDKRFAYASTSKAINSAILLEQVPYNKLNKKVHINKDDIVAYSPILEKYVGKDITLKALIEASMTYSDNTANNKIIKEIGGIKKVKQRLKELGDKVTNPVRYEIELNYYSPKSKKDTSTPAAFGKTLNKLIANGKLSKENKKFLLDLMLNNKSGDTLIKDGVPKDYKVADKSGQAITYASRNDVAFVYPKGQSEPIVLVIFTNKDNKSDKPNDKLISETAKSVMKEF
Text: Consequently, the fluorophores are unable to emit fluorescence due to ground state interactions between each other. However, after probe cleavage by β-lactamase, the fluorophores diffuse away from each other, are no longer quenched, and thus regain their fluorescent properties. […] If the assay is repeated in the presence of a cleavable antibiotic that competes with the β-LEAF for β-lactamase cleavage, the rate of β-LEAF cleavage will decrease, resulting in no fluorescence increase.
To encapsulate the data, the suppression of fluorescence change (ΔFs) is defined as (ΔFBL−ΔFBL+antibiotic)/ΔFBL, where ΔFBL and ΔFBL+antibiotic is the fluorescence rate of change of the β-lactamase only and β-lactamase and antibiotic conditions, respectively. […]
Time course assays were carried out with each of the two liquid samples by monitoring β-LEAF cleavage by measuring fluorescence for 60 minutes, at 1 minute intervals using a Spectramax® M5 Plate Reader (Molecular Devices). […] Fluorescence was measured in a machine specific standard unit.
In this example, β-LEAF assays were performed with the two ATCC S. aureus control bacterial strains, a known β-lactamase producing strain (B-lac(+)) and a known β-lactamase non-producing strain (B-lac(−)). […] Four test solutions were prepared and examined for time-course fluorescence intensity changes: […]

T1 sequence (P00807 25-281): as above

Row | Compound | change of fluorescence intensity over the ten-minute time period (S. Aureus; 50 μl sample, 2.5e6 CFU/ml S. Aureus, fluorescent probe plus Penicillin G) | susceptibility of the antibiotic to cleavage by the bacteria (S. Aureus; S. Aureus, competition with fluorescent probe) | suppression of fluorescence change (ΔFs) [1]
1 | CC1(C)S[C@@H]2[C@H](NC(=O)Cc3ccccc3)C(=O)N2[C@H]1C(=O)O [Penicillin G] | did not change significantly | vulnerable to cleaving | 
2 | Cc1nnc(SCC2=C(C(=O)O)N3C(=O)[C@@H](NC(=O)Cn4cnnn4)[C@H]3SC2)s1 [cefazolin] |  |  | ~1

— patent US11635379B2, “Portable wide field fluorimeter systems” (priority 2017, dated 2023)
